Results taken from patent US8952024B2, “Herbicidal pyrimidone derivatives” (E I du Pont de Nemours and Company, priority 2009, dated 2015).

Key:
Assay type in all cases: in vivo
[1] = test system: barnyardgrass (Echinochloa crus-galli); test: Test B flooded paddy test; conditions: for Plant response rating, Barnyardgrass: Flood (flooded paddy test), 125 g ai/ha, scale 0 to 100, 0 is no effect, 100 is complete control, 13 to 15 days; for Barnyardgrass plant response rating: Flood, 31 g ai/ha, scale 0 to 100 (0 no effect, 100 complete control)
In short: (§1)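 2-leaf seedlings; pots flooded 3 cm over soil at treatment; cpd dosed into floodwater, depth kept constant. Greenhouse 13–15 d. Visual rating vs untreated controls, 0 = no effect, 100 = complete control.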

rice (Oryza sativa) = test: Test B flooded paddy test; conditions: for Plant response rating, Rice: Flood (flooded paddy test), 125 g ai/ha, scale 0 to 100, 0 is no effect, 100 is complete control, 13 to 15 days; for Rice plant response rating: Flood, 31 g ai/ha, scale 0 to 100 (0 no effect, 100 complete control)
In short: as §1

[2] = test system: ducksalad (Heteranthera limosa); test: Test B flooded paddy test; conditions: for Plant response rating, Ducksalad: Flood (flooded paddy test), 125 g ai/ha, scale 0 to 100, 0 is no effect, 100 is complete control, 13 to 15 days; for Ducksalad plant response rating: Flood, 31 g ai/ha, scale 0 to 100 (0 no effect, 100 complete control)
In short: as §1

[3] = test system: umbrella sedge (Cyperus difformis); test: Test B flooded paddy test; conditions: for Plant response rating, Sedge, Umbrella: Flood (flooded paddy test), 125 g ai/ha, scale 0 to 100, 0 is no effect, 100 is complete control, 13 to 15 days; for Sedge, Umbrella plant response rating: Flood, 31 g ai/ha, scale 0 to 100 (0 no effect, 100 complete control)
In short: as §1

[4] = test system: pigweed (Amaranthus retroflexus); test: Test A pre-/postemergence plant response; conditions: for Pigweed plant response rating: visual injury, 0 to 100 scale (0 no effect, 100 complete control), approx. ten days
Source text: (§2) Seeds of barnyardgrass (Echinochloa crus-galli), large crabgrass (Digitaria sanguinalis), giant foxtail (Setaria faberii), morningglory (Ipomoea spp.), pigweed (Amaranthus retroflexus), velvetleaf (Abutilon theophrasti), wheat (Triticum aestivum) and corn (Zea mays) were planted into a blend of loam soil and sand and treated preemergence with a directed soil spray using test chemicals formulated in a non-phytotoxic solvent mixture which included a surfactant. At the same time these species were also treated with postemergence applications of test compounds formulated in the same manner.
(§3) Plants ranged in height from two to ten cm and were in the one- to two-leaf stage for the postemergence treatment. Treated plants and untreated controls were maintained in a greenhouse for approximately ten days, after which time all treated plants were compared to untreated controls and visually evaluated for injury. Plant response ratings, summarized in Table A, are based on a 0 to 100 scale where 0 is no effect and 100 is complete control. A dash (-) response means no test result.

[5] = test system: barnyardgrass (Echinochloa crus-galli); test: Test A pre-/postemergence plant response; conditions: for Barnyardgrass plant response rating: visual injury, 0 to 100 scale (0 no effect, 100 complete control), approx. ten days
Source text: as §2, §3

[6] = test system: wheat (Triticum aestivum); test: Test A pre-/postemergence plant response; conditions: for Wheat plant response rating: visual injury, 0 to 100 scale (0 no effect, 100 complete control), approx. ten days
Source text: as §2, §3

corn (Zea mays) = test: Test A pre-/postemergence plant response; conditions: for Corn plant response rating: visual injury, 0 to 100 scale (0 no effect, 100 complete control), approx. ten days
Source text: as §2, §3

[7] = test system: large crabgrass (Digitaria sanguinalis); test: Test A pre-/postemergence plant response; conditions: for Crabgrass, Large plant response rating: visual injury, 0 to 100 scale (0 no effect, 100 complete control), approx. ten days
Source text: as §2, §3

[8] = test system: giant foxtail (Setaria faberii); test: Test A pre-/postemergence plant response; conditions: for Foxtail, Giant plant response rating: visual injury, 0 to 100 scale (0 no effect, 100 complete control), approx. ten days
Source text: as §2, §3

[9] = test system: morningglory (Ipomoea spp.); test: Test A pre-/postemergence plant response; conditions: for Morningglory plant response rating: visual injury, 0 to 100 scale (0 no effect, 100 complete control), approx. ten days
Source text: as §2, §3

[10] = test system: velvetleaf (Abutilon theophrasti); test: Test A pre-/postemergence plant response; conditions: for Velvetleaf plant response rating: visual injury, 0 to 100 scale (0 no effect, 100 complete control), approx. ten days
Source text: as §2, §3

[11] = Postemergence, 125 g ai/ha, 0 to 100 scale where 0 is no effect and 100 is complete control
[12] = Preemergence, 125 g ai/ha, 0 to 100 scale, 0 = no effect, 100 = complete control
[13] = Preemergence, 500 g ai/ha, 0 to 100 scale, 0 = no effect, 100 = complete control

| SMILES | Plant response rating, Barnyardgrass [1] | Barnyardgrass plant response rating [1] | Plant response rating, Rice (rice (Oryza sativa)) | Rice plant response rating (rice (Oryza sativa)) | Plant response rating, Ducksalad [2] | Ducksalad plant response rating [2] | Plant response rating, Sedge, Umbrella [3] | Sedge, Umbrella plant response rating [3] | Plant response rating, Pigweed [4, 11] | Pigweed plant response rating ([4]; Postemergence, 500 g ai/ha) | Plant response rating, Pigweed [4, 12] | Plant response rating, Pigweed [4, 13] | Plant response rating, Barnyardgrass [5, 11] | Barnyardgrass plant response rating ([5]; Postemergence, 500 g ai/ha) | Plant response rating, Barnyardgrass [5, 12] | Plant response rating, Barnyardgrass [5, 13] | Plant response rating, Wheat [6, 11] | Wheat plant response rating ([6]; Postemergence, 500 g ai/ha) | Plant response rating, Wheat [6, 12] | Plant response rating, Wheat [6, 13] | further results |
| --- | --- | --- | --- | --- | --- | --- | --- | --- | --- | --- | --- | --- | --- | --- | --- | --- | --- | --- | --- | --- | --- |
| O=C1CCCC(O)=C1C(=O)c1cnc(-c2cc(F)cc(F)c2)n(CC2CCCCC2)c1=O [Compound 163] | 0 | 0 | 20 | 10 | 60 | 30 | 70 | 70 | 80 | 100 | 0 | 60 | 50 | 100 | 0 | 20 | 0 | 0 | 0 | 0 | Plant response rating, Corn (corn (Zea mays); [11]): 0; Corn plant response rating (corn (Zea mays); Postemergence, 500 g ai/ha): 20; Plant response rating, Corn (corn (Zea mays); [12]): 0; Plant response rating, Corn (corn (Zea mays); [13]): 0; Plant response rating, Crabgrass, Large [7, 11]: 60; Crabgrass, Large plant response rating ([7]; Postemergence, 500 g ai/ha): 90; Plant response rating, Crabgrass, Large [7, 12]: 0; Plant response rating, Crabgrass, Large [7, 13]: 10; Plant response rating, Foxtail, Giant [8, 11]: 20; Foxtail, Giant plant response rating ([8]; Postemergence, 500 g ai/ha): 50; Plant response rating, Foxtail, Giant [8, 12]: 0; Plant response rating, Foxtail, Giant [8, 13]: 10; Plant response rating, Morningglory [9, 11]: 10; Morningglory plant response rating ([9]; Postemergence, 500 g ai/ha): 100; Plant response rating, Morningglory [9, 12]: 0; Plant response rating, Morningglory [9, 13]: 0; Plant response rating, Velvetleaf [10, 11]: 100; Velvetleaf plant response rating ([10]; Postemergence, 500 g ai/ha): 100; Plant response rating, Velvetleaf [10, 12]: 10; Plant response rating, Velvetleaf [10, 13]: 50 |
| Cc1cc(F)ccc1-n1c(-c2cccc(Cl)c2)ncc(C(=O)C2=C(O)CCCC2=O)c1=O [Compound 167] | 20 | 0 | 0 | 0 | 70 | 0 | 60 | 20 | 90 | 100 | 10 | 90 | 60 | 100 | 0 | 30 | 0 | 0 | 0 | 0 | Plant response rating, Corn (corn (Zea mays); [11]): 30; Corn plant response rating (corn (Zea mays); Postemergence, 500 g ai/ha): 30; Plant response rating, Corn (corn (Zea mays); [12]): 0; Plant response rating, Corn (corn (Zea mays); [13]): 0; Plant response rating, Crabgrass, Large [7, 11]: 60; Crabgrass, Large plant response rating ([7]; Postemergence, 500 g ai/ha): 90; Plant response rating, Crabgrass, Large [7, 12]: 20; Plant response rating, Crabgrass, Large [7, 13]: 90; Plant response rating, Foxtail, Giant [8, 11]: 90; Foxtail, Giant plant response rating ([8]; Postemergence, 500 g ai/ha): 90; Plant response rating, Foxtail, Giant [8, 12]: 10; Plant response rating, Foxtail, Giant [8, 13]: 50; Plant response rating, Morningglory [9, 11]: 60; Morningglory plant response rating ([9]; Postemergence, 500 g ai/ha): 100; Plant response rating, Morningglory [9, 12]: 0; Plant response rating, Morningglory [9, 13]: 0; Plant response rating, Velvetleaf [10, 11]: 100; Velvetleaf plant response rating ([10]; Postemergence, 500 g ai/ha): 100; Plant response rating, Velvetleaf [10, 12]: 70; Plant response rating, Velvetleaf [10, 13]: 100 |
| C#CCn1c(-c2cc(F)cc(F)c2)ncc(C(=O)C2=C(O)CCCC2=O)c1=O [Compound 170] | 30 | 0 | 20 | 15 | 45 | 0 | 35 | 0 | 80 | 100 | 30 | 50 | 40 | 90 | 0 | 60 | 0 | 20 | 0 | 20 | Plant response rating, Corn (corn (Zea mays); [11]): 20; Corn plant response rating (corn (Zea mays); Postemergence, 500 g ai/ha): 30; Plant response rating, Corn (corn (Zea mays); [12]): 0; Plant response rating, Corn (corn (Zea mays); [13]): 0; Plant response rating, Crabgrass, Large [7, 11]: 60; Crabgrass, Large plant response rating ([7]; Postemergence, 500 g ai/ha): 90; Plant response rating, Crabgrass, Large [7, 12]: 10; Plant response rating, Crabgrass, Large [7, 13]: 70; Plant response rating, Foxtail, Giant [8, 11]: 50; Foxtail, Giant plant response rating ([8]; Postemergence, 500 g ai/ha): 80; Plant response rating, Foxtail, Giant [8, 12]: 10; Plant response rating, Foxtail, Giant [8, 13]: 70; Plant response rating, Morningglory [9, 11]: 100; Morningglory plant response rating ([9]; Postemergence, 500 g ai/ha): 100; Plant response rating, Morningglory [9, 12]: 0; Plant response rating, Morningglory [9, 13]: 70; Plant response rating, Velvetleaf [10, 11]: 100; Velvetleaf plant response rating ([10]; Postemergence, 500 g ai/ha): 100; Plant response rating, Velvetleaf [10, 12]: 10; Plant response rating, Velvetleaf [10, 13]: 80 |
| CCCn1c(-c2cccc(C)c2)ncc(C(=O)C2=C(O)CCCC2=O)c1=O [Compound 172] | 20 | 0 | 0 | 0 | 60 | 20 | 75 | 0 | 100 | 100 | 10 | 100 | 90 | 90 | 10 | 80 | 0 | 20 | 0 | 0 | Plant response rating, Corn (corn (Zea mays); [11]): 20; Corn plant response rating (corn (Zea mays); Postemergence, 500 g ai/ha): 30; Plant response rating, Corn (corn (Zea mays); [12]): 0; Plant response rating, Corn (corn (Zea mays); [13]): 0; Plant response rating, Crabgrass, Large [7, 11]: 60; Crabgrass, Large plant response rating ([7]; Postemergence, 500 g ai/ha): 80; Plant response rating, Crabgrass, Large [7, 12]: 10; Plant response rating, Crabgrass, Large [7, 13]: 90; Plant response rating, Foxtail, Giant [8, 11]: 60; Foxtail, Giant plant response rating ([8]; Postemergence, 500 g ai/ha): 90; Plant response rating, Foxtail, Giant [8, 12]: 10; Plant response rating, Foxtail, Giant [8, 13]: 60; Plant response rating, Morningglory [9, 11]: 90; Morningglory plant response rating ([9]; Postemergence, 500 g ai/ha): 100; Plant response rating, Morningglory [9, 12]: 0; Plant response rating, Morningglory [9, 13]: 50; Plant response rating, Velvetleaf [10, 11]: 100; Velvetleaf plant response rating ([10]; Postemergence, 500 g ai/ha): 100; Plant response rating, Velvetleaf [10, 12]: 50; Plant response rating, Velvetleaf [10, 13]: 80 |
| CCc1ccc(-n2c(-c3cccc(Br)c3)ncc(C(=O)C3=C(O)CCCC3=O)c2=O)cc1 [Compound 175] | 20 | 0 | 0 | 0 | 95 | 75 | 85 | 75 | 100 | 100 | 60 | 100 | 50 | 100 | 0 | 30 | 0 | 0 | 0 | 0 | Plant response rating, Corn (corn (Zea mays); [11]): 0; Corn plant response rating (corn (Zea mays); Postemergence, 500 g ai/ha): 20; Plant response rating, Corn (corn (Zea mays); [12]): 0; Plant response rating, Corn (corn (Zea mays); [13]): 0; Plant response rating, Crabgrass, Large [7, 11]: 40; Crabgrass, Large plant response rating ([7]; Postemergence, 500 g ai/ha): 80; Plant response rating, Crabgrass, Large [7, 12]: 30; Plant response rating, Crabgrass, Large [7, 13]: 50; Plant response rating, Foxtail, Giant [8, 11]: 30; Foxtail, Giant plant response rating ([8]; Postemergence, 500 g ai/ha): 80; Plant response rating, Foxtail, Giant [8, 12]: 0; Plant response rating, Foxtail, Giant [8, 13]: 50; Plant response rating, Morningglory [9, 11]: 10; Morningglory plant response rating ([9]; Postemergence, 500 g ai/ha): 80; Plant response rating, Morningglory [9, 12]: 0; Plant response rating, Morningglory [9, 13]: 10; Plant response rating, Velvetleaf [10, 11]: 100; Velvetleaf plant response rating ([10]; Postemergence, 500 g ai/ha): 100; Plant response rating, Velvetleaf [10, 12]: 40; Plant response rating, Velvetleaf [10, 13]: 50 |
